Laboratory results taken from patent publication US5084082A, “Soybean plants with dominant selectable trait for herbicide resistance” (priority 1990, dated 1992).

Key:
[1] = system: Acetolactate synthase (ALS) from leaves of W28; assay: Test D ALS assay with chlorsulfuron; format: biochemical, soybean
Method: (§1) Acetolactate synthase (ALS) was extracted from leaves of soybean plants growing vegetatively. The leaves were homogenized in 4 volumes of buffer containing 100 mM hepes (pH 7.5), 1 mM sodium pyruvate, 0.5 mM magnesium chloride, 0.5 mM thiamine pyrophosphate, […], 10% glycerol, 5% PVPP, and 0.2% mercaptoethanol. The homogenate was filtered through cheese cloth and centrifuged at 20,000 g for 20 min. ALS was precipitated from the supernatant with ammonium sulfate. The enzyme was collected between 20 and 60% saturation by centrifugation at 20,000 g for 20 min. The pellet was resuspended in buffer containing 100 mM Hepes, 1 mM sodium pyruvate, and 0.5 mM magnesium chloride, and desalted on PD-10 columns (Pharmacia) equilibrated with the same buffer. ALS assays were carried out in a final volume of 0.5 mL at 30° C. The final reaction mixture contained 100 mM Hepes (pH 7.5), 1 mM magnesium chloride, 60 mM sodium pyruvate, 0.4 mM thiaminepyrophosphate, […], and various concentrations of chlorsulfuron. The assays were initiated with the addition of enzyme ([…]) and terminated with the addition of […] of 6N sulfuric acid. The acidified reaction mixture was heated to 60° C. for 15 min, after which 0.5 mL of 0.5% (W/V) creatine and 0.5 mL of 5% (W/V) napthol (freshly prepared in 2.5 N sodium hydroxide) were added. The reaction mixtures were heated for an additional 15 min at 60° C., and the absorbance was read at 525 nm. Data are expressed in terms of % control (minus Compound 1) activity and are the average of two replications. Fisher's least significant difference (LSD) value (at the 95% level of confidence) was calculated for each Compound 1 concentration to determine the significance of genotype mean differences.

[2] = system: Acetolactate synthase (ALS) from leaves of W23; assay: Test D ALS assay with chlorsulfuron; format: biochemical, soybean
Method: as §1

[3] = system: Acetolactate synthase (ALS) from leaves of W19; assay: Test D ALS assay with chlorsulfuron; format: biochemical, soybean
Method: as §1

[4] = system: Acetolactate synthase (ALS) from leaves of Williams 82; assay: Test D ALS assay with chlorsulfuron; format: biochemical, soybean
Method: as §1

[5] = system: Acetolactate synthase (ALS) from leaves of W20; assay: Test D ALS assay with chlorsulfuron; format: biochemical, soybean
Method: as §1

[6] = system: Williams-NMU-1 M2 seedlings; assay: Hydroponic selection of M2 seeds with Compound 1; format: in vivo, soybean; conditions: 100 ppb
Method: Four Modified Hydropot Solo units were prepared as described in the Detailed Description by filling the planting tanks with a 5 cm layer of pea gravel followed by a 10 cm layer of fine vermiculite. M2 seeds of the William-NMU-1 were densely planted (approx. 16,600 seeds per square meter) by placing the seeds in a single horizontal layer on top of the vermiculite and then covering the seeds with a second level 2.5 cm layer of vermiculite. The nutrient solution reservoir was filled with tap water supplemented with 100 ppb of Compound 1 as the selective agent. Plant tanks were irrigated with the Compound 1 solution for four 30 minute periods per day beginning at 12 midnight, 8 AM, 12 noon, and 4 pm. […] The W20 plant was gently removed from the from the hydroponic planting tank and transplanted into a 20 cm pot containing a standard peat-based potting mixture. […] This observation led the applicant to believe that W20 represented a new class of resistant mutants. W20 was allowed to reach maturity under greenhouse conditions and produce an M3 line that was also referred to as W20.
M2 seeds of the Williams-NMU-1 treatment (Table II) were densely planted (approximately 16,600 seeds Per m2) on top of a level 7 cm layer of granular vermiculite supported by the upper chamber of the planting tank of the previously described large hydroponic selection system. […]

Williams = assay: Seed soak test with Compound 8; format: in vivo, soybean; conditions: seeds soaked 16 hours in 2 ppm solution, within two weeks of planting
Method: (§2) The original W4-4 M2 plant was allowed to self pollinate, mature, and produced a family of M3 seeds. An M3 progeny test was then conducted to determine if the new resistance phenotype was heritable and if the M3 family was true-breeding or segregating for the new resistance trait. The M3 progeny of W4-4 were screened for resistance with the same seed soak technique used to select the original W4-4 M2 plant. Twenty seeds each of the W4-4 M3 family, W20 line, and Williams line were soaked for 16 hours in a solution of 2 ppm of Compound 8. Twenty additional seeds of Williams were soaked for 16 hours in plain tap water as a control treatment. Treated seeds were then washed for two minutes in running water. Each seed was then planted in a separate pot for ease of observation.

W4-4 M3 family = assay: Seed soak test with Compound 8; format: in vivo, soybean; conditions: W4-4 M3, seeds soaked 16 hours in 2 ppm solution, within two weeks of planting
Method: as §2

Q: `COc1nc(C)nc(NC(=O)NS(=O)(=O)c2ccccc2Cl)n1` [Compound 1, 2-chloro-N-[[(4-methoxy-6-methyl-1,3,5-triazin-2-yl)amino]carbonyl]benzenesulfonamide] was tested. Which “uninhibited ALS activity (% of control)” value ([1]; W28, chlorsulfuron 10 mg/l-l) did it give?
A: Its value is 54.6 % of control.

Q: What about the “uninhibited ALS activity (% of control)” value ([1]; W28, chlorsulfuron 20 mg/l-l) of the same molecule?
A: The value was 46.1 % of control.

Q: What about the “uninhibited ALS activity (% of control)” value ([1]; W28, chlorsulfuron 50 mg/l-l) of the same molecule?
A: Its value is 42.8 % of control.

Q: What about the “uninhibited ALS activity (% of control)” value ([1]; W28, chlorsulfuron 100 mg/l-l) of the same molecule?
A: Its value is 36.4 % of control.

Q: What about the “uninhibited ALS activity (% of control)” value ([1]; W28, chlorsulfuron 200 mg/l-l) of the same molecule?
A: The value was 34.3 % of control.

Q: What about the “uninhibited ALS activity (% of control)” value ([2]; W23, chlorsulfuron 10 mg/l-l) of the same molecule?
A: The value was 55.3 % of control.

Q: What about the “uninhibited ALS activity (% of control)” value ([2]; W23, chlorsulfuron 20 mg/l-l) of the same molecule?
A: The value was 46.3 % of control.

Q: And the “uninhibited ALS activity (% of control)” value ([2]; W23, chlorsulfuron 50 mg/l-l)?
A: Its value is 38.9 % of control.

Q: And the “uninhibited ALS activity (% of control)” value ([2]; W23, chlorsulfuron 100 mg/l-l)?
A: Its value is 37.4 % of control.

Q: What about the “uninhibited ALS activity (% of control)” value ([2]; W23, chlorsulfuron 200 mg/l-l) of the same molecule?
A: The value was 34.0 % of control.

Q: And the “uninhibited ALS activity (% of control)” value ([3]; W19, chlorsulfuron 10 mg/l-l)?
A: Its value is 60.7 % of control.

Q: What about the “uninhibited ALS activity (% of control)” value ([3]; W19, chlorsulfuron 20 mg/l-l) of the same molecule?
A: Its value is 54.5 % of control.

Q: And the “uninhibited ALS activity (% of control)” value ([3]; W19, chlorsulfuron 50 mg/l-l)?
A: Its value is 48.7 % of control.

Q: What about the “uninhibited ALS activity (% of control)” value ([3]; W19, chlorsulfuron 100 mg/l-l) of the same molecule?
A: Its value is 45.7 % of control.

Q: And the “uninhibited ALS activity (% of control)” value ([3]; W19, chlorsulfuron 200 mg/l-l)?
A: The value was 40.8 % of control.

Q: And the “uninhibited ALS activity (% of control)” value ([4]; WM 82, chlorsulfuron 10 mg/l-l)?
A: The value was 41.1 % of control.

Q: And the “uninhibited ALS activity (% of control)” value ([4]; WM 82, chlorsulfuron 20 mg/l-l)?
A: The value was 26.3 % of control.

Q: What about the “uninhibited ALS activity (% of control)” value ([4]; WM 82, chlorsulfuron 50 mg/l-l) of the same molecule?
A: Its value is 15.0 % of control.

Q: What about the “uninhibited ALS activity (% of control)” value ([4]; WM 82, chlorsulfuron 100 mg/l-l) of the same molecule?
A: Its value is 11.1 % of control.

Q: And the “uninhibited ALS activity (% of control)” value ([4]; WM 82, chlorsulfuron 200 mg/l-l)?
A: Its value is 8.5 % of control.

Q: What about the “uninhibited ALS activity (% of control)” value ([5]; W20, chlorsulfuron 10 mg/l-l) of the same molecule?
A: Its value is 50.6 % of control.

Q: What about the “uninhibited ALS activity (% of control)” value ([5]; W20, chlorsulfuron 20 mg/l-l) of the same molecule?
A: Its value is 35.2 % of control.

Q: And the “uninhibited ALS activity (% of control)” value ([5]; W20, chlorsulfuron 50 mg/l-l)?
A: Its value is 31.1 % of control.

Q: What about the “uninhibited ALS activity (% of control)” value ([5]; W20, chlorsulfuron 100 mg/l-l) of the same molecule?
A: The value was 20.8 % of control.

Q: And the “uninhibited ALS activity (% of control)” value ([5]; W20, chlorsulfuron 200 mg/l-l)?
A: The value was 19.0 % of control.

Q: What about the “effect on surrounding seedlings” value ([6]; Modified Hydropot Solo units, twelve days after planting) of the same molecule?
A: Its value is “lethal to the surrounding seedlings”.

Q: And the “effect on background of wild type seedlings” value ([6]; large hydroponic unit, 8 days after planting)?
A: The value was “uniformly inhibited”.

Q: What does the source list for `COC(=O)c1cccnc1S(=O)(=O)NC(=O)Nc1nc(OC)cc(OC)n1` [Compound 8, Methyl 2-[[[[(4,6-dimethoxy-2-pyrimidinyl)amino]carbonyl]amino]sulfonyl]-3-pyridinecarboxylate]?
A: seedling development after seed soak (Williams): had not started to form true leaves; seedling development after seed soak (W4-4 M3 family): had developed both unifoliolate and trifoliolate leaves
